Here are results for 18 compounds from patent US20140011799A1 (Bristol-Myers Squibb Company, priority 2012, published 2014).

Values joined by “and” are separate entries in the source; they are usually repeats but may differ in a detail not shown here. Identical values can stand only once. Where only a bound is given, the exact number is not on record here.

For assay [1], the target named is T1, Endothelial lipase (EL) (Homo sapiens, UniProt Q9Y5X9).
T1 construct: HT-1080 cells that were transformed using RAGE technology (Athersys) to overexpress endogenous EL; endogenous in cells; conditioned medium used
T1 sequence (Q9Y5X9 21-500): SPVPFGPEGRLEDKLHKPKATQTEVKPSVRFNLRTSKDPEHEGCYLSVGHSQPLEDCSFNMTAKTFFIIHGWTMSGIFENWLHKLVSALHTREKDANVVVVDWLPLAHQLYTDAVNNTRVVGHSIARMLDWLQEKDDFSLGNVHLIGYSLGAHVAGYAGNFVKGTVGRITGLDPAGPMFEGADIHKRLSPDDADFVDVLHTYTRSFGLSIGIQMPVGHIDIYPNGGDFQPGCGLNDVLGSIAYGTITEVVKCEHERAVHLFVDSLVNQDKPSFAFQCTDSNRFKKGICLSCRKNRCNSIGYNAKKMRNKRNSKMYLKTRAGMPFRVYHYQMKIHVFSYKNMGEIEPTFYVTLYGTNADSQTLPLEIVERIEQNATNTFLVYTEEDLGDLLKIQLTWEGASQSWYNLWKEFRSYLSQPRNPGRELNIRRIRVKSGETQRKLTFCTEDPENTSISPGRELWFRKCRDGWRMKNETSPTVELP
The experiment in a line: Endothelial lipase (EL) enzymatic assay, fluorescent substrate A10070 in DMPG vesicles. The format is biochemical. The settings on record: EL from conditioned media of HT-1080 cells; compound preincubated 30 min at 37° C; read-out: EL IC50. An outline of the steps:
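Substrate A10070 sits in sonicated DMPG vesicles at 0.11 mole fraction. Lipase and compound preincubated 30 min, 37° C, in HEPES pH 8.0 buffer with CaCl2.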

Assay [2] has as its target T2, hepatic lipase (HL) (Homo sapiens, UniProt P11150).
T2 construct: made in house; host or cells: COS cells (conditioned medium, partially purified)
T2 sequence (P11150 23-499): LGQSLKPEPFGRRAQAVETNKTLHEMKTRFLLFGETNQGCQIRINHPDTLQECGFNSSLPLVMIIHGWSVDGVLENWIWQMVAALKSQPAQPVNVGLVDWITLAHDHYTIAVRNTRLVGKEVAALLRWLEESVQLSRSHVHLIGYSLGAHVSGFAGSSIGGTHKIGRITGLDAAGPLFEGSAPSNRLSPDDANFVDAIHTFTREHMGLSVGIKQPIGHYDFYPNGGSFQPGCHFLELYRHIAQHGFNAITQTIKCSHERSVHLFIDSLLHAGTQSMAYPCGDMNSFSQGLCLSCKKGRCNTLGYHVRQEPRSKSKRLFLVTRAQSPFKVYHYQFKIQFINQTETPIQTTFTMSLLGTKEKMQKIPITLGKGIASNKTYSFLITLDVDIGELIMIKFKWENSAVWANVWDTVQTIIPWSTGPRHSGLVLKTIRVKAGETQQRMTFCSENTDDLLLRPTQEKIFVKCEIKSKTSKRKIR
The experiment in a line: Hepatic lipase (HL) enzymatic assay, fluorescent substrate A10070 in DMPG vesicles. The format is biochemical. As to conditions: HL partially purified from conditioned media of COS cells; compound preincubated 30 min at 37° C; read-out: HL IC50. As for the experimental part: Endothelial lipase (EL) and hepatic lipase (HL) activities were measured using a fluorescent substrate, A10070, (Invitrogen, CA) doped into an artificial vesicle containing DMPG (Avanti Polar Lipids) as the excipient. Vesicles were prepared by combining 571 μL of 29 mM DMPG in a 1:1 mixture of MeOH and CHCl3 with 2000 μL of 1 mM A10070 in a 1:1 mixture of MeOH and CHCl3. The mixture was dried under nitrogen in multiple vials then resuspended in 20 mL total volume of 50 mM HEPES pH 8.0 buffer containing 50 mM NaCl and 0.2 mM EDTA. The sample was allowed to sit at room temperature for 15 min and then was sonicated 3×4 mins on ice with a Branson Sonicator using duty cycle 1. This preparation provides vesicles with a mole fraction of 0.11 for the FRET substrate.
The enzymatic assay was measured using 384-well white Optiplates. Each well contained 20 μL of assay buffer (50 mM HEPES pH 8.0, 50 mM NaCl and 1 mM CaCl2) and 0.25 μL of a DMSO solution containing a compound of interest. EL or HL (10 μL) was added and allowed to incubate with the compound for 30 min at 37° C. The source of EL was conditioned media obtained from HT-1080 cells that were transformed using RAGE technology (Athersys) to overexpress endogenous EL, and HL was partially purified from conditioned media obtained from COS cells overexpressing HL. The reaction was started by the addition of 10 μL of a 1:10 dilution of vesicles. The final total reaction volume was […]. The reaction rates were measured on a Gemini plate reader with an excitation wavelength of 490 nm and an emission wavelength of 530 nm. Readings were taken over a period of 60 minutes, and the slope between 300 and 900 secs of the readout was used to calculate the rate of the reaction.

By IC50 is commonly meant the concentration that gives 50% inhibition. For the compound `Cc1noc(C)c1-c1ccc2sc(C(c3nnc(CNS(N)(=O)=O)o3)S(C)(=O)=O)nc2c1` (stereo not shown) [Example 248, N-[(5-{[5-(dimethyl-1,2-oxazol-4-yl)-1,3-benzothiazol-2-yl] (methanesulfonyl)methyl}-1,3,4-oxadiazol-2-yl)methyl] aminosulfonamide], the IC50 is 5 nM in assay [1] and 26 nM in assay [2]. Taken in the same sequence, the figures for `NS(=O)(=O)NCc1nnc(C(c2nc3ccc(-c4cc(Cl)cc(Cl)c4)cc3s2)S(=O)(=O)Cc2ccccc2)o1` (stereo not shown) [Example 143, N-((5-((benzylsulfonyl)(6-(3,5-dichlorophenyl)-1,3-benzothiazol-2-yl)methyl)-1,3,4-oxadiazol-2-yl)methyl) sulfamide] were less than 10 nM and less than 10 nM. For `CS(=O)(=O)C(c1nnc(CC2SC(=O)NC2=O)o1)c1nc2ccc(Br)cc2s1` (stereo not shown) [Example 100, 5-((5-((6-bromo-1,3-benzothiazol-2-yl)(methylsulfonyl)methyl)-1,3,4-oxadiazol-2-yl)methyl)-1,3-thiazolidine-2,4-dione], in that order: 77 nM and 291 nM.

`C=CCS(=O)(=O)C(c1nnc(CNS(N)(=O)=O)o1)c1nc2ccc(-c3ccc(C(=O)N4CCOCC4)cc3)cc2s1` (stereo not shown) [Example 150, N-((5-((allylsulfonyl)(6-(4-(4-morpholinylcarbonyl)phenyl)-1,3-benzothiazol-2-yl)methyl)-1,3,4-oxadiazol-2-yl)methyl)sulfamide]: the IC50 in assay [1] was less than 10 nM; in assay [2] it was 560 nM. For the compound `CS(=O)(=O)C(c1nnc(CC2SC(=O)NC2=O)o1)c1nc2ccc(-c3cnc(OCc4ccccc4)nc3)cc2s1` (stereo not shown) [Example 104, 5-((5-((6-(2-(benzyloxy)-5-pyrimidinyl)-1,3-benzothiazol-2-yl)(methylsulfonyl)methyl)-1,3,4-oxadiazol-2-yl)methyl)-1,3-thiazolidine-2,4-dione], the IC50 is less than 10 nM in assay [1]; < 10 nM and 11 nM in assay [2]. Turning to `NS(=O)(=O)NCc1nnc(C(c2nc3ccc(-c4cc(F)nc(F)c4)cc3s2)S(=O)(=O)Cc2ccccc2)o1` (stereo not shown) [Example 145, N-((5-((benzylsulfonyl)(6-(2,6-difluoro-4-pyridinyl)-1,3-benzothiazol-2-yl)methyl)-1,3,4-oxadiazol-2-yl)methyl)sulfamide], the IC50 in assay [1] was less than 10 nM; in assay [2], 77 nM. For `CC(O)CCNC(=O)Cc1nnc(C(c2nc3ccc(-c4ccc(C(=O)N5CCOCC5)cc4)cc3s2)S(C)(=O)=O)o1` (stereo not shown) [Example 176, N-(3-hydroxybutyl)-2-(5-((methylsulfonyl)(6-(4-(4-morpholinylcarbonyl)phenyl)-1,3-benzothiazol-2-yl)methyl)-1,3,4-oxadiazol-2-yl)acetamide], in that order: 10 nM and 465 nM. Regarding `CC1(Cc2nnc(C(c3nc4ccc(-c5ccccc5)cc4s3)S(C)(=O)=O)o2)NC(=O)N(CC(F)(F)F)C1=O` (single isomer, unassigned; isomer a) [Example 27, 5-methyl-5-((5-(methylsulfonyl(6-phenylbenzo[d]thiazol-2-yl)methyl)-1,3,4-oxadiazol-2-yl)methyl)-3-(2,2,2-trifluoroethyl)imidazolidine-2,4-dione (Isomer A)], the IC50 in assay [1] is less than 10 nM. Same read-out and setting: next, `O=S(=O)(O)Cc1nnc(C(c2nc3ccc(-c4ccccc4)cc3s2)S(=O)(=O)Cc2ccc(F)cc2)o1` (stereo not shown) [Example 34, (5-(((4-fluorobenzyl)sulfonyl)(6-phenylbenzo [d]thiazol-2-yl)methyl)-1,3,4-oxadiazol-2-yl)methanesulfonic acid]: 131 nM; `Cc1nn(C)cc1-c1ccc2nc(C(c3nnc(CC4SC(=O)NC4=O)o3)S(C)(=O)=O)sc2c1` (stereo not shown) [Example 20, 5-((5-((6-(1,3-dimethyl-1H-pyrazol-4-yl)benzo[d]thiazol-2-yl)(methylsulfonyl)methyl)-1,3,4-oxadiazol-2-yl)methyl) thiazolidine-2,4-dione]: less than 10 nM. Still for that read-out and setting: to `CS(=O)(=O)C(c1nnc(CC2SC(=O)NC2=O)o1)c1nc2ccc(-c3ccccc3)cc2s1` (stereo not shown) [Example 31, 5-((5-((methylsulfonyl) (6-phenyl-1,3-benzothiazol-2-yl)methyl)-1,3,4-oxadiazol-2-yl)methyl)-1,3-thiazolidine-2,4-dione] belongs less than 10 nM; to `CS(=O)(=O)C(c1nnc(CC2NC(=O)NC2=O)o1)c1nc2ccc(-c3ccccc3)cc2s1` (stereo not shown) [Example 30, 5-((5-((methylsulfonyl) (6-phenyl-1,3-benzothiazol-2-yl)methyl)-1,3,4-oxadiazol-2-yl)methyl)-2,4-imidazolidinedione], 16 nM. Same read-out and setting: next, `CS(=O)(=O)C(c1nnc(CNS(N)(=O)=O)o1)c1nc2ccc(-c3ccc(F)nc3)cc2s1` (stereo not shown) [Example 79, N-((5-((6-(6-fluoro-3-pyridinyl)-1,3-benzothiazol-2-yl)(methylsulfonyl)methyl)-1,3,4-oxadiazol-2-yl)methyl)sulfamide]: less than 10 nM; `NS(=O)(=O)NCc1nnc(C(c2nc3ccc(-c4ccccc4)cc3s2)S(=O)(=O)CCN2C(=O)c3ccccc3C2=O)o1` (stereo not shown) [Example 52, N-[(5-{(6-phenyl-1,3-benzothiazol-2-yl) ([2-(1,3-dioxo-1,3-dihydro-2H-isoindol-2-yl)ethyl]sulfonyl)methyl}-1,3,4-oxadiazol-2-yl)methyl]sulfuric diamide]: less than 10 nM; `CC(c1nnc(CNS(N)(=O)=O)o1)(c1nc2ccc(-c3ccccc3)cc2s1)S(C)(=O)=O` (single isomer, unassigned) [Reference 1, Isomer A, N-((5-(1-(Methylsulfonyl)-1-(6-phenyl-1,3-benzothiazol-2-yl)ethyl)-1,3,4-oxadiazol-2-yl)methyl)sulfamide, reference compound]: 3750 nM. For the compound `Cc1noc(C)c1-c1ccc2nc(C(c3nnc(CC4SC(=O)NC4=O)o3)S(C)(=O)=O)sc2c1` (stereo not shown) [Example 19, 5-((5-((6-(3,5-dimethylisoxazol-4-yl)benzo[d]thiazol-2-yl)(methylsulfonyl)methyl)-1,3,4-oxadiazol-2-yl)methyl) thiazolidine-2,4-dione], the half-inhibitory concentration (IC50) in assay [1] is less than 10 nM. As for `NS(=O)(=O)NCc1nnc(C(c2nc3ccc(-c4ccccc4)cc3s2)S(=O)(=O)Cc2cccc(C(F)(F)F)c2)o1` (stereo not shown) [Example 62, N-((5-(((3-(trifluoromethyl)benzyl)sulfonyl) (6-phenyl-1,3-benzothiazol-2-yl)methyl)-1,3,4-oxadiazol-2-yl)methyl)sulfamide], the IC50 in assay [1] was less than 10 nM. On to `CC(C)(C)OC(=O)N(Cc1nnc(C(c2nc3ccc(-c4ccccc4)cc3s2)S(C)(=O)=O)o1)S(C)(=O)=O` (stereo not shown) [Example 84, tert-Butyl methylsulfonyl((5-((methylsulfonyl)(6-phenylbenzo[d]thiazol-2-yl)methyl)-1,3,4-oxadiazol-2-yl)methyl)carbamate], for which the half-inhibitory concentration (IC50) in assay [1] was less than 10 nM.
